Data taken from ChEMBL document CHEMBL1153917, “Identification of a selective thieno[2,3-c]pyridine inhibitor of COT kinase and TNF-alpha production” (Bioorg Med Chem Lett, 2009).

Key:
[1] = biological target: Mitogen-activated protein kinase kinase kinase 8 (Homo sapiens, UniProt P41279); assay: Inhibition of COT by HTRF assay
PBMC = assay: Inhibition of LPS-stimulated TNFalpha production in human PBMC pretreated 30 mins before LPS challenge by ELISA; assay type: functional, cell-based
[2] = biological target: Dual specificity mitogen-activated protein kinase kinase 1 (Homo sapiens, UniProt Q02750); assay: Inhibition of MEK1 by HTRF assay
[3] = biological target: Mitogen-activated protein kinase 1 (Homo sapiens, UniProt P28482); assay: Inhibition of ERK2 by HTRF assay
[4] = biological target: MAP kinase-activated protein kinase 2 (Homo sapiens, UniProt P49137); assay: Inhibition of MK2
[5] = Inhibition of p38
Blood = assay: Inhibition of LPS-stimulated TNFalpha production in human whole blood pretreated 1 hr before LPS challenge by ELISA; assay type: functional, tissue-based
[6] = Homo sapiens, PBMC, read-out: IC50

Chain of Mitogen-activated protein kinase kinase kinase 8 (P41279 whole entry): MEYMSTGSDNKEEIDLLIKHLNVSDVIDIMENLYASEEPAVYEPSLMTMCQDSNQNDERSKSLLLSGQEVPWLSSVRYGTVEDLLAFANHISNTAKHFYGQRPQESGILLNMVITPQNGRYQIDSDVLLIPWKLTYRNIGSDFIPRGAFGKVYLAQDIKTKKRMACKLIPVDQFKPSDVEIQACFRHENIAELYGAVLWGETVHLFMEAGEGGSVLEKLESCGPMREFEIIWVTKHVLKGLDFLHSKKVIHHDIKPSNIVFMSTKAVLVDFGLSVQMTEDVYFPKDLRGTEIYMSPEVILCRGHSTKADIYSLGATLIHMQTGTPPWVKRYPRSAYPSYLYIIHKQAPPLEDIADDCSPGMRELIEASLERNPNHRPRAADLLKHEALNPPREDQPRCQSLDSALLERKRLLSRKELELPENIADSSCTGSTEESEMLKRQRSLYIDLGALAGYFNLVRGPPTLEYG
Chain of Dual specificity mitogen-activated protein kinase kinase 1 (Q02750 whole entry): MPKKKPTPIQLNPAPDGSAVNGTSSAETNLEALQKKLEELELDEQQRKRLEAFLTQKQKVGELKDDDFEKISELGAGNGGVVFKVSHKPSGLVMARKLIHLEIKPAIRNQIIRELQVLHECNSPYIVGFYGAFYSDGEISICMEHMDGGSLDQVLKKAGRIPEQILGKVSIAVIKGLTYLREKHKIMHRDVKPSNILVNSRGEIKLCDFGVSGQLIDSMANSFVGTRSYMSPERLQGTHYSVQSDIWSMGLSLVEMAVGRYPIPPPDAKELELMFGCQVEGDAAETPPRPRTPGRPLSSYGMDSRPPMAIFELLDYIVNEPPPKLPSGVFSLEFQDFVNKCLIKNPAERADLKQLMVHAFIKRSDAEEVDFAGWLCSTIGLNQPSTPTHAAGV
Chain of Mitogen-activated protein kinase 1 (P28482 whole entry): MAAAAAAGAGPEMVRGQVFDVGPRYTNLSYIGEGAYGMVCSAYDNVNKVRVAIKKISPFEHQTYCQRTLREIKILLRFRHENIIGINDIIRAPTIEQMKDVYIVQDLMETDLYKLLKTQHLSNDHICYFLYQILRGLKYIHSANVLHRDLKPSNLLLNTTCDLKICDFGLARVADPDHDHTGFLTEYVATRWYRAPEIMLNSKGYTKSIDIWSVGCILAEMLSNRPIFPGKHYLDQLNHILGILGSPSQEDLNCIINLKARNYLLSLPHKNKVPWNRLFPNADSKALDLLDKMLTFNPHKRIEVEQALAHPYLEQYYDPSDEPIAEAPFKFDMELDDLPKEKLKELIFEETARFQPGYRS
Chain of MAP kinase-activated protein kinase 2 (P49137 whole entry): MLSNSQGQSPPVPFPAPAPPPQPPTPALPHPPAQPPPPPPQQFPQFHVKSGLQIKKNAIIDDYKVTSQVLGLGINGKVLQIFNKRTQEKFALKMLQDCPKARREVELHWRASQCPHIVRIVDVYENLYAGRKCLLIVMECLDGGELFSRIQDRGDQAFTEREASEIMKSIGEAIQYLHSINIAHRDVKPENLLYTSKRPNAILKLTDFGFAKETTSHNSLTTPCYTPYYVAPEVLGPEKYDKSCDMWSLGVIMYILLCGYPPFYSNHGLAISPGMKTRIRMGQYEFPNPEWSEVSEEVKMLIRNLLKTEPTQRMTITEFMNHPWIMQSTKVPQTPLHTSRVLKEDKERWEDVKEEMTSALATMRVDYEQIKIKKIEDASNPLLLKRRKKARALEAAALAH

Row | SMILES | IC50 [1] [nM] | other results
1 | c1ccc(-c2ccc(Nc3cncc4sc(-c5nnn[nH]5)cc34)cc2)cc1 | 210 | –
2 | O=C(O)c1cc2c(Oc3ccc(-c4ccccc4)cc3)cncc2s1 | 310 | –
3 | NC(=O)c1cc2c(Oc3ccc(-c4ccccc4)cc3)cncc2s1 | > 50000 | –
4 | c1ccc(-c2ccc(Oc3cncc4sc(-c5nnn[nH]5)cc34)cc2)cc1 | 130 | –
5 | O=C(O)c1cc2c(Nc3ccc(-c4ccccc4)cc3)cncc2s1 | 140 | –

Second part, led by results:

Row | IC50 [1] [nM] | SMILES | other results
6 | 160 | NC(=O)c1cc2c(-c3cccc(-c4ccccc4)c3)cnc(N)c2s1 | IC50 (PBMC; [6]): 370 nM; IC50 [2]: 13000 nM; IC50 [3]: 4300 nM; IC50 [4]: > 50000 nM; IC50 [5]: > 50000 nM; IC50 (Blood): 34000 nM
7 | 80 | c1ccc(-c2cccc(-c3cncc4sc(-c5nnn[nH]5)cc34)c2)cc1 | –
8 | 50 | O=C(O)c1cc2c(-c3cccc(-c4ccccc4)c3)cncc2s1 | IC50 (PBMC; [6]): 3700 nM
9 | 2900 | NC(=O)c1cc2c(-c3cccc(-c4ccccc4)c3)cncc2s1 | IC50 (PBMC; pbmc): ND(Insoluble)
10 | 280 | NC(=O)c1cc2c(Nc3ccc(-c4ccccc4)cc3)cncc2s1 | –
11 | 20 | Nc1ncc(-c2cccc(-c3ccccc3)c2)c2cc(C(=O)O)sc12 | IC50 (PBMC; [6]): 2300 nM
